# Values joined by “and” are separate entries in the source; they are usually repeats but may differ in a detail not shown here. Identical values can stand only once.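 How tested: cells in 96-well plates exposed to compound for 48 hours at five concentrations. At the GI50, growth is halved. TGI denotes the concentration required for complete inhibition of growth.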
# Key:
# Test in all cases: NCI tumour cell line growth inhibition, 48 h
# [1] = system: DMS 114 small cell lung
# [2] = system: XF 498 CNS
# [3] = system: RXF-631 renal
# [4] = system: DMS 273 small cell lung
# [5] = system: BT-549 breast
# [6] = system: DU-145 prostate
# [7] = system: MDA-N
# [8] = system: HS 578T breast
# [9] = system: MDA-MB-231 breast
# [10] = system: P388/ADR leukemia
# [11] = system: SN12K1 renal
# [12] = system: P388 leukemia
Compound,TGI [1],TGI [2] [µM],TGI [3],TGI [4] [µM],other results
O=C(CCCCCCCCCCc1ccccc1)c1c(O)cccc1O,45.3 µM,40.1,85.4 µM,34,
CC1CCC(O)C(C(O)CC2CC(=O)N(C)C(=O)C2)C1 (stereo not given),> 100 µM,> 100,> 100 µM,> 100,
COc1ccc([Se]c2ccc(OC)cc2OC)c(OC)c1,13 µM,> 100,> 100 µM,17.6,
Brc1ccc2c(c1)C1(c3cc(Br)ccc3-2)c2cc(Br)ccc2-c2ccc(Br)cc21,> 100 µM,> 100,> 100 µM,> 100,
O=C(O)c1cc(Cl)cc(NC(=O)C(Cl)Cl)c1Cl,> 100 µM,> 100,> 100 µM,> 100,
Cc1ccc(NC(=O)CCC(=O)C2CC(=O)CC/C2=N\NC(=O)c2cc3ccccc3cc2O)cc1C (stereo not given),51.6 µM,99,> 100 µM,43.1,
O=c1[nH]c(=O)n(C2CC(O)C(CO)O2)cc1C#Cc1ccc(C(F)(F)F)cc1 (stereo not given),> 100 µM,> 100,> 100 µM,> 100,
O=C1OCC(C(=O)c2cccc(O)c2)C1=O (stereo not given),> 100 µM,,> 100 µM,> 100,
CC(C)c1ccc(/C=C(\NC(=O)c2ccccc2)c2nc3ccccc3[nH]2)cc1,92.8 µM,> 100,> 100 µM,> 100,
CCOC(=O)c1cnc2[nH]c(=O)c3ccccc3n2c1=O,,> 100,> 100 µM,> 100,
Cn1c(=O)c2c3oc(=O)cc(O)c3c(=O)n3c4ccccc4n(c1=O)c23,,68,> 100 µM,> 100,
Cc1nnc2n1N=C(CC(=O)c1ccc(O)cc1O)CN2N,40 µM,,> 100 µM,> 100,
COc1ccc2cccc(C(=N)c3ccc(C)c4c3CCC4)c2c1,19.9 µM,,4.37 µM,21.2,
CC(=O)NC1C(OCc2ccccc2)OC(COC(=O)CCCCCCCCCCNC(=O)c2cccc3c(=O)c4ccccc4[nH]c23)C(O)C1OC(C)C(=O)NC(C)C(=O)NC(CCC(N)=O)C(N)=O (stereo not given),> 100 µM,> 100,43.8 µM,> 100,
Oc1cc2cc(-c3ccccc3)[nH]c2c2ccccc12,27.7 µM,25.9,> 89.8 µM,2.06,
Cc1cc(N(CCC#N)S(=O)(=O)c2ccccc2)ccc1C=O,> 100 µM,,> 100 µM,> 100,
O=C1c2c(O)cccc2C(C(=O)CCCCC(=O)C2c3cccc(O)c3C(=O)c3c(O)cccc32)c2cccc(O)c21,1.48 µM and 1.83 µM,1.18,3.61 µM and 2.81 µM,4.51,GI50 [1]: 1.01 µM; TGI [5]: 1.96 µM; TGI [6]: 1.81 µM; TGI [7]: 3.77 µM; TGI [8]: 0.951 µM; TGI [9]: 0.9 µM; GI50 [3]: 1.36 µM
COc1ccc(S(=O)(=O)N/N=C/C(=O)O)cc1,1230 µM,> 1080,,> 1200,TGI [10]: 721 µM; TGI [5]: 704 µM; TGI [11]: > 1250 µM; TGI [6]: 843 µM; TGI [7]: > 1200 µM; TGI [8]: 1040 µM; TGI [9]: > 1250 µM; TGI [12]: 787 µM

# — PubChem BioAssay (NCI)
